The values that follow come from US6872818B2, “Ammonium sulfate for neutralization of inhibitory effects” (QIAGEN GmbH, priority 2001, dated 2005).

Assay [1] has as its system RT-PCR reaction. The following applies: final concentration of 1 mM.
Experimental: In order to quantify the generated cDNA after RT reactions, 2 μl of each RT reaction mixture was transferred to a 20 μl PCR mixture.
Assay [2] concerns cDNA synthesis. As to the kind of experiment: Reverse transcription / PCR in presence of SYBRGREEN dye. The format is biochemical. The following applies: final concentration of 100×. As to the method: Reverse transcription reactions containing 0×, 0.001×, 0.01×, 0.1×, 1×, 10× and 100× SYBRGREEN® dye were performed. In order to quantify the generated cDNA after RT-reaction, 2 μl of the RT reaction was transferred to a 20 μl PCR mixture. PCR products were analyzed by gel-electrophoresis.

As to `NCCCNCCCCNCCCN` [spermine], the “reduction in signals produced from an RT-PCR reaction” value in assay [1] was “up to 4 fold”. Take `CCCN(CCCN(C)C)c1cc(/C=C2/Sc3ccccc3N2C)c2ccccc2[n+]1-c1ccccc1` [SYBRGREEN® dye]: the cDNA synthesis entry in assay [2] is “total loss of cDNA synthesis”.
